Test results published in patent US20150203474A1, “SOLID FORMS COMPRISING INHIBITORS OF HCV NS5A, COMPOSITIONS THEREOF, AND USES THEREWITH” (PRESIDIO PHARMACEUTICALS ,INC., priority 2012, published 2015).
Where two headings read alike, the source gives them in different places.

Columns and labels:
[1] = test system: HCV genotype 5a replicon; assay: HCV replicon assay, GT 5a (luciferase readout); type: cell-based; details: Hepatitis C virus; GT 5a replicon; n > 3
Description: (§1) Biological activity of the compounds of the invention was determined using an HCV replicon assay. The 1b_Huh-Luc/Neo-ET cell line persistently expressing a bi-cistronic genotype 1b replicon in Huh 7 cells was obtained from ReBLikon GMBH. This cell line was used to test compound inhibition using luciferase enzyme activity readout as a measurement of compound inhibition of replicon levels.
(§2) On Day 1 (the day after plating), each compound was added in triplicate to the cells. Plates incubated for 72 hrs prior to running the luciferase assay. Enzyme activity was measured using a Bright-Glo Kit (cat. number E2620) manufactured by Promega Corporation. The following equation was used to generate a percent control value for each compound.
(§3) % Control=(Average Compound Value/Average Control)*100
(§4) The EC50 value was determined using GraphPad Prism and the following equation:
(§5) Y=Bottom+(Top−Bottom)/(1+10̂((LogIC50−X)*HillSlope))
(§6) EC50 values of compounds are repeated several times in the replicon assay.
(§7) The disclosed compounds can inhibit multiple genotypes of HCV including, but not limited to 1a, 1b, 2a, 3a, 4a and 5a. The EC50s are measured in the corresponding replicon assays that are similar to HCV 1b replicon assay as described above.

[2] = test system: HCV genotype 3a replicon; assay: HCV replicon assay, GT 3a (luciferase readout); type: cell-based; details: Hepatitis C virus; GT 3a replicon; n > 3
Description: as §1, §2, §3, §4, §5, §6, §7

[3] = test system: HCV genotype 1a replicon; assay: HCV replicon assay, GT 1a (luciferase readout); type: cell-based; details: Hepatitis C virus; GT 1a replicon; n > 3
Description: as §1, §2, §3, §4, §5, §6, §7

[4] = test system: HCV genotype 4a replicon; assay: HCV replicon assay, GT 4a (luciferase readout); type: cell-based; details: Hepatitis C virus; GT 4a replicon; n > 3
Description: as §1, §2, §3, §4, §5, §6, §7

[5] = test system: bi-cistronic genotype 1b replicon in Huh 7 cells (1b_Huh-Luc/Neo-ET cell line); assay: HCV replicon assay, GT 1b (luciferase readout); type: cell-based; details: Hepatitis C virus, GT 1b replicon, n > 3
Description: as §1, §2, §3, §4, §5, §6

[6] = test system: HCV genotype 2a replicon; assay: HCV replicon assay, GT 2a (luciferase readout); type: cell-based; details: Hepatitis C virus; GT 2a replicon; n > 3
Description: as §1, §2, §3, §4, §5, §6, §7

[7] = Moisture sorption profile (DVS) of Compound II Form I and amorphous Compound II; type: physicochemical; details: DVS at 25° C.
Description: The moisture sorption profile was generated of the sample as well as of a sample of amorphous Compound II at 25° C. using a DVS Moisture Balance Flow System (Model Advantage) with the following conditions: sample size approximately 10 mg, drying 25° C. for 60 minutes, adsorption range 0% to 95% RH, desorption range 95% to 0% RH, and step interval 5%. The equilibrium criterion was <0.01% weight change in 5 minutes for a maximum of 120 minutes.

[8] = Solubility of Form I and free base compound 4-3 (visual and HPLC assay of filtrate); type: physicochemical; details: for pH (Filtrated): filtrate of solubility sample; for HPLC Solubility / Visual Solubility (observation in words) / solubility at 24 h: target conc. 2.0 mg/mL; for HPLC Solubility / solubility at 24 h: 24 hours ambient, 0.45-μm filtrate; for solubility at 24 h: thermodynamic from solid, read-out: HPLC Solubility
Description: Solubility of Form I as well as the free base compound 4-3 was tested. Solubility was measured by placing a small quantity of the compound to be analyzed in a glass vial, capping and rotating the vial overnight at ambient conditions (24 hours). Target concentration was 2.0 mg/mL. The samples were filtrated with 0.45-μm filters. The subsequent filtrate was collected for HPLC assay. HPLC conditions are shown in Table 10 in Appendix A. Solubility for Form I is shown in Table 11 and for the free base compound 4-3 is shown in Table 12 in Appendix A. [table]

## CC[C@H](C)[C@H](NC(=O)OC)C(=O)N1CCC[C@H]1c1nc2ccc(-c3ccc4cc(-c5cnc([C@@H]6CCCN6C(=O)[C@@H](NC(=O)OC)[C@@H](C)OC)[nH]5)ccc4c3)cc2[nH]1 [Compound II]
[1]
  EC50: 0.04 nM
[2]
  EC50: 0.4 nM
[3]
  EC50: 0.07 nM
[4]
  EC50: 0.04 nM
[5]
  EC50: 0.01 nM
[6]
  EC50: 0.11 nM

## COC(=O)N[C@H](C(=O)N1CCC[C@H]1c1ncc(-c2ccc3cc(-c4ccc5nc([C@@H]6CCCN6C(=O)[C@@H](NC(=O)OC)C(C)C)[nH]c5c4)ccc3c2)[nH]1)C(C)C [Compound I]
[1]
  EC50: 0.039 nM
[2]
  EC50: 1.26 nM
[3]
  EC50: 0.135 nM
[4]
  EC50: 0.052 nM
[5]
  EC50: 0.016 nM
[6]
  EC50: 0.139 nM

## CC[C@H](C)[C@H](NC(=O)OC)C(=O)N1CCC[C@H]1c1nc2ccc(-c3ccc4cc(-c5cnc([C@@H]6CCCN6C(=O)[C@@H](NC(=O)OC)[C@@H](C)OC)[nH]5)ccc4c3)cc2[nH]1 [amorphous Compound II]
[7]
  weight percentage change (water uptake) from 0-75% RH: 13.57%

## CC[C@H](C)[C@H](NC(=O)OC)C(=O)N1CCC[C@H]1c1nc2ccc(-c3ccc4cc(-c5cnc([C@@H]6CCCN6C(=O)[C@@H](NC(=O)OC)[C@@H](C)OC)[nH]5)ccc4c3)cc2[nH]1 [compound 4-3]
[8]; 0.1N HCl
  pH (Filtrated): 1.09
  HPLC Solubility: 2066 µg/mL
[8]; Water
  pH (Filtrated): 8.83
  Visual Solubility (observation in words): Turbid +
  HPLC Solubility: <1 µg/mL
[8]; pH 2 medium
  pH (Filtrated): 2.17
  HPLC Solubility: 2056 µg/mL
[8]; pH 3 medium
  pH (Filtrated): 3.59
  Visual Solubility (observation in words): A few
  HPLC Solubility: 1763 µg/mL
[8]; pH 4 medium
  pH (Filtrated): 4.72
  Visual Solubility (observation in words): Turbid +
  HPLC Solubility: 11 µg/mL
[8]; pH 5 medium
  pH (Filtrated): 5.27
  HPLC Solubility: 1 µg/mL
[8]; pH 6 medium, pH 6, aqueous buffer, pH 6 medium
  solubility at 24 h: < 1 µg/mL
[8]; pH 6 medium
  pH (Filtrated): 6.04
  Visual Solubility (observation in words): Turbid +
[8]; pH 7 medium, pH 7, aqueous buffer, pH 7 medium
  solubility at 24 h: < 1 µg/mL
[8]; pH 7 medium
  pH (Filtrated): 7.00
  Visual Solubility (observation in words): Turbid +
[8]; pH 8 medium, pH 8, aqueous buffer, pH 8 medium
  solubility at 24 h: < 1 µg/mL
[8]; pH 8 medium
  pH (Filtrated): 7.91
  Visual Solubility (observation in words): Turbid +
